Reference: PubChem BioAssay AID256 (DTP/NCI, 2004)
Inconclusive results and toxic doses are left out. Rule for the calls: active = survival T/C of 150% or more; inactive = T/C below 125% in these data.

System: CD2F1 mice, L1210 leukemia ip, survival T/C
Assay: NCI In Vivo Anticancer Drug Screen. Data for tumor model L1210 Leukemia (intraperitoneal) in CD2F1 (CDF1) mice
Details: higher = longer survival
Procedure, shortened: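 Tumor-bearing mice (transplanted tumor) were split into treated and vehicle control groups, and the measured endpoint of each treated group was divided by that of its vehicle controls.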

[1] = endpoint: mean survival time, dose: 25.0 mg/kg/injection, schedule: Q04DX003 (ip), vehicle: saline with Tween-80
[2] = endpoint: mean survival time, dose: 50.0 mg/kg/injection, schedule: Q04DX003 (ip), vehicle: saline with Tween-80
[3] = endpoint: mean survival time, dose: 100.0 mg/kg/injection, schedule: Q04DX003 (ip), vehicle: saline with Tween-80
[4] = endpoint: mean survival time, dose: 100.0 mg/kg/injection, schedule: Q01DX009 (ip), vehicle: Klucel (hydroxypropylcellulose) (HPC)
[5] = endpoint: mean survival time, dose: 50.0 mg/kg/injection, schedule: Q01DX009 (ip), vehicle: saline with Tween-80
[6] = endpoint: mean survival time, dose: 100.0 mg/kg/injection, schedule: Q01DX009 (ip), vehicle: saline with Tween-80
[7] = endpoint: mean survival time, dose: 200.0 mg/kg/injection, schedule: Q01DX009 (ip), vehicle: saline with Tween-80
[8] = endpoint: mean survival time, dose: 75.0 mg/kg/injection, schedule: Q01DX001 (ip), vehicle: saline
[9] = endpoint: mean survival time, dose: 150.0 mg/kg/injection, schedule: Q01DX001 (ip), vehicle: saline
[10] = endpoint: mean survival time, dose: 100.0 mg/kg/injection, schedule: Q04DX002 (ip), vehicle: saline with Tween-80
[11] = endpoint: mean survival time, dose: 200.0 mg/kg/injection, schedule: Q04DX002 (ip), vehicle: saline with Tween-80
[12] = endpoint: mean survival time, dose: 400.0 mg/kg/injection, schedule: Q04DX002 (ip), vehicle: saline with Tween-80
[13] = endpoint: mean survival time, dose: 100.0 mg/kg/injection, schedule: Q01DX001 (ip), vehicle: saline with Tween-80
[14] = endpoint: mean survival time, dose: 200.0 mg/kg/injection, schedule: Q01DX001 (ip), vehicle: saline with Tween-80
[15] = endpoint: mean survival time, dose: 400.0 mg/kg/injection, schedule: Q01DX001 (ip), vehicle: saline with Tween-80
[16] = endpoint: mean survival time, dose: 100.0 mg/kg/injection, schedule: Q01DX001 (ip), vehicle: saline
[17] = endpoint: mean survival time, dose: 200.0 mg/kg/injection, schedule: Q01DX001 (ip), vehicle: saline
[18] = endpoint: mean survival time, dose: 400.0 mg/kg/injection, schedule: Q01DX001 (ip), vehicle: saline
[19] = endpoint: mean survival time, dose: 25.0 mg/kg/injection, schedule: Q04DX002 (ip), vehicle: saline with Tween-80
[20] = endpoint: mean survival time, dose: 200.0 mg/kg/injection, schedule: Q04DX003 (ip), vehicle: saline with Tween-80
[21] = endpoint: mean survival time, dose: 400.0 mg/kg/injection, schedule: Q04DX003 (ip), vehicle: saline with Tween-80

Measured: T/C

Brc1sccc1-c1cccc2ccccc12
inactive: [1] 104 % of control | [2] 96 % of control | [3] 104 % of control

CC(=O)Nc1ccc(S(N)(=O)=O)cc1
inactive: endpoint: mean survival time, dose: 25.0 mg/kg/injection, schedule: Q01DX009 (ip), vehicle: Klucel (hydroxypropylcellulose) (HPC) 100 % of control | endpoint: mean survival time, dose: 50.0 mg/kg/injection, schedule: Q01DX009 (ip), vehicle: Klucel (hydroxypropylcellulose) (HPC) 95 % of control | [4] 100 % of control

CC1OC(n2cc(C(N)=O)c3c(N)ncnc32)C(O)C1O (configuration not stated)
inactive: endpoint: mean survival time, dose: 12.5 mg/kg/injection, schedule: Q01DX009 (ip), vehicle: saline 103 % of control | endpoint: mean survival time, dose: 25.0 mg/kg/injection, schedule: Q01DX009 (ip), vehicle: saline 103 % of control | endpoint: mean survival time, dose: 50.0 mg/kg/injection, schedule: Q01DX009 (ip), vehicle: saline 103 % of control | endpoint: mean survival time, dose: 100.0 mg/kg/injection, schedule: Q01DX009 (ip), vehicle: saline 105 % of control

O=C(CSC1=NCCN1)c1ccc([N+](=O)[O-])cc1
inactive: [1] 94 % of control | [2] 93 % of control | [3] 93 % of control

COc1cc(OC)c(NC(=O)Nc2ccc(C(=O)O)cc2)cc1Cl
inactive: [5] 89 % of control | [6] 100 % of control | [7] 96 % of control

CCO/C=C/C(=O)NC(=O)NC1CC(CO)CC1O (configuration not stated)
inactive: [5] 97 % of control | [6] 97 % of control | [7] 105 % of control

[Cl][Pt+2][Cl].[NH-]c1cccc(I)c1.[NH-]c1cccc(I)c1
inactive: endpoint: mean survival time, dose: 3.12 mg/kg/injection, schedule: Q04DX003 (ip), vehicle: distilled water + Tween-80 103 % of control | endpoint: mean survival time, dose: 6.25 mg/kg/injection, schedule: Q04DX003 (ip), vehicle: distilled water + Tween-80 110 % of control | endpoint: mean survival time, dose: 12.5 mg/kg/injection, schedule: Q04DX003 (ip), vehicle: distilled water + Tween-80 108 % of control | endpoint: mean survival time, dose: 25.0 mg/kg/injection, schedule: Q04DX003 (ip), vehicle: distilled water + Tween-80 106 % of control | endpoint: mean survival time, dose: 50.0 mg/kg/injection, schedule: Q04DX003 (ip), vehicle: distilled water + Tween-80 112 % of control | endpoint: mean survival time, dose: 100.0 mg/kg/injection, schedule: Q04DX003 (ip), vehicle: distilled water + Tween-80 112 % of control

CC(=O)Nc1ncnc2c1ncn2C1OC(COC(C)=O)C(NC(=O)C(F)(F)F)C1OC(C)=O (configuration not stated)
inactive: endpoint: median survival time, dose: 12.5 mg/kg/injection, schedule: Q01DX005 (ip), vehicle: alkali diluted with saline 109 % of control | endpoint: median survival time, dose: 25.0 mg/kg/injection, schedule: Q01DX005 (ip), vehicle: alkali diluted with saline 102 % of control | endpoint: median survival time, dose: 50.0 mg/kg/injection, schedule: Q01DX005 (ip), vehicle: alkali diluted with saline 109 % of control | endpoint: median survival time, dose: 100.0 mg/kg/injection, schedule: Q01DX005 (ip), vehicle: alkali diluted with saline 107 % of control | endpoint: median survival time, dose: 200.0 mg/kg/injection, schedule: Q01DX005 (ip), vehicle: alkali diluted with saline 106 % of control

CC(C)NCc1ccc2c(c1)OCO2
inactive: [8] 98 % of control | [9] 101 % of control

O=C(Cn1ccc(=O)[nH]c1=O)c1c[nH]c2ccccc12
inactive: [10] 108 % of control | [11] 108 % of control | [12] 104 % of control

O=C(N/N=C\C(O)C(O)C(O)C(O)CO)c1ccccc1 (configuration not stated)
inactive: [8] 100 % of control | [9] 104 % of control | endpoint: mean survival time, dose: 300.0 mg/kg/injection, schedule: Q01DX001 (ip), vehicle: saline 106 % of control

O=C1Cc2c([nH]c(=S)[nH]c2=O)N1
inactive: endpoint: median survival time, dose: 50.0 mg/kg/injection, schedule: Q01DX005 (ip), vehicle: saline 94 % of control | endpoint: median survival time, dose: 100.0 mg/kg/injection, schedule: Q01DX005 (ip), vehicle: saline 102 % of control | endpoint: median survival time, dose: 200.0 mg/kg/injection, schedule: Q01DX005 (ip), vehicle: saline 101 % of control

[Cl][PtH].c1ccc([PH+](c2ccccc2)c2ccccc2)cc1.c1ccc([PH+](c2ccccc2)c2ccccc2)cc1
inactive: [13] 92 % of control | [14] 92 % of control | [15] 95 % of control

CC(C)NC(=O)NC(C)C
inactive: [16] 107 % of control | [17] 102 % of control | [18] 100 % of control

CC(=O)Nc1c(F)c(F)c(F)c(F)c1F
inactive: [13] 102 % of control | [14] 95 % of control | [15] 94 % of control

C/C(CCc1ccccc1)=N/O
inactive: endpoint: mean survival time, dose: 100.0 mg/kg/injection, schedule: Q01DX009 (ip), vehicle: other 100 % of control | endpoint: mean survival time, dose: 200.0 mg/kg/injection, schedule: Q01DX009 (ip), vehicle: other 103 % of control | endpoint: mean survival time, dose: 400.0 mg/kg/injection, schedule: Q01DX009 (ip), vehicle: other 101 % of control

CC1CCSCS1 (configuration not stated)
inactive: endpoint: mean survival time, dose: 12.5 mg/kg/injection, schedule: Q04DX002 (ip), vehicle: saline with Tween-80 97 % of control | [19] 102 % of control | endpoint: mean survival time, dose: 50.0 mg/kg/injection, schedule: Q04DX002 (ip), vehicle: saline with Tween-80 102 % of control

C1CCCCCC2=C(CCCC1)CCCO2
inactive: endpoint: mean survival time, dose: 6.25 mg/kg/injection, schedule: Q04DX003 (ip), vehicle: saline with Tween-80 91 % of control | endpoint: mean survival time, dose: 12.5 mg/kg/injection, schedule: Q04DX003 (ip), vehicle: saline with Tween-80 91 % of control | [1] 86 % of control | [2] 89 % of control | [3] 94 % of control | [20] 94 % of control

CC1(C)C(N2CCOCC2)C(c2ccccc2)S1(=O)=O (configuration not stated)
inactive: [13] 101 % of control | [14] 105 % of control | [15] 105 % of control

NC(=O)C12CCCCC1CCC2 (configuration not stated)
inactive: [3] 103 % of control | [20] 96 % of control | [21] 97 % of control

CN1C2Cc3cc4c(cc3C1Cc1cc3c(cc12)OCO3)OCO4
inactive: [8] 100 % of control | [9] 94 % of control

O=C1OC2CCC(Br)CC2C=C1C1CCC([N+](=O)[O-])CC1 (configuration not stated)
inactive: [10] 108 % of control | [11] 100 % of control | [12] 89 % of control

COc1ccc2nc3cc(Cl)ccc3c(NCCC[N+](C)(C)CCCCCCCCCCCCCCCC[N+](C)(C)CCCNc3c4ccc(Cl)cc4nc4ccc(OC)cc34)c2c1
inactive: endpoint: mean survival time, dose: 1.56 mg/kg/injection, schedule: Q01DX009 (ip), vehicle: other 96 % of control | endpoint: mean survival time, dose: 3.13 mg/kg/injection, schedule: Q01DX009 (ip), vehicle: other 94 % of control | endpoint: mean survival time, dose: 6.25 mg/kg/injection, schedule: Q01DX009 (ip), vehicle: other 105 % of control

C(=N\N=C\c1ccccc1)/c1ccccc1
inactive: [13] 100 % of control | [3] 103 % of control | [14] 100 % of control | [20] 91 % of control | [15] 97 % of control | [21] 96 % of control

CC(C)CC(CC(C)C)C(=O)C1C2CCC(O2)C1C(=O)C(CC(C)C)CC(C)C (configuration not stated)
inactive: [19] 88 % of control

C1=CSCCC1
inactive: endpoint: mean survival time, dose: 25.0 mg/kg/injection, schedule: Q04DX002 (ip), vehicle: saline + alcohol 102 % of control | endpoint: mean survival time, dose: 50.0 mg/kg/injection, schedule: Q04DX002 (ip), vehicle: saline + alcohol 94 % of control | endpoint: mean survival time, dose: 100.0 mg/kg/injection, schedule: Q04DX002 (ip), vehicle: saline + alcohol 90 % of control

O=C(CC(NC(=O)OCc1ccccc1)C(=O)O)OCc1ccccc1 (configuration not stated)
inactive: [3] 103 % of control | [20] 95 % of control | [21] 102 % of control

Nc1nc(N)c(-c2ccc(Cl)cc2)c(CNc2cccc([N+](=O)[O-])c2)n1
inactive: endpoint: mean survival time, dose: 100.0 mg/kg/injection, schedule: Q01DX001 (ip), vehicle: other 95 % of control | endpoint: mean survival time, dose: 200.0 mg/kg/injection, schedule: Q01DX001 (ip), vehicle: other 94 % of control | endpoint: mean survival time, dose: 400.0 mg/kg/injection, schedule: Q01DX001 (ip), vehicle: other 90 % of control

CCCCCCC1=C(O)C(=O)C(CCCCCC)=C(O)C1=O
inactive: [16] 100 % of control | [17] 97 % of control | [18] 97 % of control

O=C(Nc1ccccc1C(F)(F)F)OCCOc1ccccc1Cl
inactive: [4] 103 % of control | endpoint: mean survival time, dose: 400.0 mg/kg/injection, schedule: Q01DX009 (ip), vehicle: Klucel (hydroxypropylcellulose) (HPC) 89 % of control
